In paper PMC9599641, “TNP Analogues Inhibit the Virulence Promoting IP3-4 Kinase Arg1 in the Fungal Pathogen Cryptococcus neoformans” (Biomolecules, 2022):

Tests used:
CnArg1 = CnArg1 (Cryptococcus neoformans var. grubii, UniProt J9W3G0); test: Surface plasmon resonance (SPR) binding to immobilised CnArg1; settings: 6.25–200 µM, 10 °C, steady-state affinity, mean ± SEM
Procedure: SPR was carried out on a Biacore T200 (Cytiva, Marlborough, MA, USA). A streptavidin surface was prepared by amine coupling streptavidin to a CM5 chip using standard procedures in 20 mM HEPES, 150 mM NaCl pH 7.5 at 37 °C. Briefly, the surface was activated by injection of 1:1 NHS:EDC (N-ethyl-N’-(3-(dimethylamino)propyl)carbodiimide/N-hydroxysuccinimide) followed by a 7-min injection of 100 µg/mL streptavidin in 10 mM sodium acetate (pH 4.5) at a flow rate of 2 µL/min. Unreacted groups on the surface were blocked by injection of 1 M ethanolamine (pH 8.0). Purified recombinant CnArg1 was N-terminally biotinylated and immobilised to a level of ~4000 RU onto the streptavidin surface at 25 °C in 20 mM HEPES, 200 mM NaCl, 5 mM MgCl2 (pH 7.5) at a flow rate of 2 µL/min.
For analysis, compounds were prepared to 50 mM in 100% DMSO and diluted to the desired concentration in SPR running buffer; 20 mM HEPES (pH 7.5), 200 mM NaCl, 5 mM MgCl2, 5% DMSO. Analysis was carried out using multi-cycle kinetics over a compound concentration range of 6.25–200 µM in running buffer at 10 °C, with an association time of 60 s and a dissociation time of 120 s. Data were reference subtracted, and a solvent correction applied. Analysis was carried out using Biacore T200 Evaluation Software and all data fit to a 1:1 Langmuir binding isotherm.

[1] = target: CnArg1 (IP3-4K from C. neoformans) (Cryptococcus neoformans var. grubii, UniProt J9W3G0); test: Kinase-Glo enzyme inhibition assay, recombinant CnArg1; assay type: biochemical; settings: 10 µM ATP, 50 µM IP3, 2.5 ng/µL enzyme, 10 min, room temperature, 5% DMSO; mean ± SEM
Sequence of CnArg1 (IP3-4K from C. neoformans) (Cryptococcus neoformans var. grubii, UniProt J9W3G0) (J9W3G0 entry or part of it): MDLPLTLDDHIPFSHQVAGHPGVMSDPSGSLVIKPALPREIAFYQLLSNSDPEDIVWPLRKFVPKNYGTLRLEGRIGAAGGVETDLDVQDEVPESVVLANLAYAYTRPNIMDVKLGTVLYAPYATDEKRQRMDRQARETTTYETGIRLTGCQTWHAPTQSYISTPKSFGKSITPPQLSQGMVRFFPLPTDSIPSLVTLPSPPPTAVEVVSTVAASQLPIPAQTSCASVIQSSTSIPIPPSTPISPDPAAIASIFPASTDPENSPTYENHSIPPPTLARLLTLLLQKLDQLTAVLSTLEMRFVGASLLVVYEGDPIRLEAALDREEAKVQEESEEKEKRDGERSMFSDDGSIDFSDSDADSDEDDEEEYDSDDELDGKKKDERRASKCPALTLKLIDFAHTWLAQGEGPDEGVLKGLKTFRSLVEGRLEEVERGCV
Procedure: (§1) The 2,6-disubstituted purine compounds are ATP-competitive IPK inhibitors. […] The amount of IP3 and kinase used for each recombinant enzyme was determined following the manufacturer’s instructions, and this concentration was used to assess the inhibitory properties of TNP analogues against each of the recombinant enzymes.
(§2) The analogues were dissolved in DMSO. For the assay, the inhibitors were added to the reaction mixture to achieve a final concentration of 50 µM in 5% DMSO (1:20 dilution). To achieve inhibitor concentrations lower than 50 µM in the assay, the inhibitor stock was first serially diluted two-fold in DMSO and added to the reaction mixture, to achieve concentrations ranging between 0.8 μM and 50 µM in 5% DMSO. Once all analogues and their dilution series had been added, the reaction was started by adding an optimal amount of recombinant IP3-4K enzyme. The reaction was stopped after 10-min incubation at room temperature by adding a 50 µL of Kinase-Glo® reagent. The mixture was incubated at room temperature in the dark for 10–15 min. Luminescence (RLU) was measured using a SpectraMax iD5 and an integration time of 0.5 s. Percent enzyme activity was defined as (RLUnegative − RLUsample)/(RLUnegative − RLUpositive) × 100. ‘Positive’ refers to 100% enzyme activity (no inhibitor used as the positive control), while ‘negative’ refers to 0% enzyme activity (no enzyme used as the negative control).
(§3) Next, we determined the inhibitory properties of TNP. TNP is an ATP-competitive inhibitor [34]. […] IP3 and enzyme concentrations were also optimised following the manufacturer’s instructions. […] This optimal amount of IP3 was then used to test varying concentrations of the kinase ranging from 0 to 20 ng/µL. The amount of kinase that produced luminescence values in the linear range of the kinase titration curve was deemed to be the optimal kinase amount.

[2] = tested on: CnArg1 (IP3-4K from C. neoformans); test: as above; assay type: biochemical; settings: selectivity, ratio higher than 1 = more selective for CnArg1
Procedure: as §1, §2, §3

HsIPMK = HsIPMK (Homo sapiens, UniProt Q8NFU5); test: Kinase-Glo enzyme inhibition assay, recombinant HsIPMK; also: 6 ng/µL enzyme; assay type: biochemical; set-up: GST (N, cleaved yes); made in house; host or cells: E. coli BL21 (DE3); plasmid made by GenScript
Sequence of HsIPMK (Q8NFU5 whole entry): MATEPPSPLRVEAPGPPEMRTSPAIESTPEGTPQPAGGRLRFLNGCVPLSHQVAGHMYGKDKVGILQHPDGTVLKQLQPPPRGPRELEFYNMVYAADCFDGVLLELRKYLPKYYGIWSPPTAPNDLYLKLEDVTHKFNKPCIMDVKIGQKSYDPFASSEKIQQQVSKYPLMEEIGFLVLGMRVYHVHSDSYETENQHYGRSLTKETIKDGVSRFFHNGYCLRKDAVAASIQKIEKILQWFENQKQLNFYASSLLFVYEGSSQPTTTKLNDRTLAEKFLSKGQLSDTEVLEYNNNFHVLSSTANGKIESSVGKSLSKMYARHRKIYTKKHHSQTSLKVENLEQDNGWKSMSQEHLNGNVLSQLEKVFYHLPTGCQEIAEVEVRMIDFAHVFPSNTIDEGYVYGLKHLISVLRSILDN
Procedure: as §1, §2, §3

Sequence of CnArg1 (J9W3G0 entry or part of it): as the sequence (J9W3G0 entry or part of it) above

In the case of `COCCNc1nc(Nc2ccc(O)cc2)nc2[nH]cnc12` [Compound 37], the KD (CnArg1) is reported as “No binding”, the IC50 [1] is reported as 17 ± 2 µM and the “HsIPMK/CnArg1 IC50 ratio” value [2] is reported as 0.4. It also gave an IC50 (HsIPMK) of 7 ± 1 µM.
